This note sets out measurements from patent US11293024B2, “Antisense antibacterial compounds and methods” (priority 2014, dated 2022).

Data set [1] has as its system existing P. aeruginosa PAO1 biofilm. Put plainly: Biofilm reduction in MBEC plate (crystal violet). Conditions: at 10, 5, 2.5, and 1 μM; 2 μg/mL PMBN; 48 hour biofilm. Format: cell-based, Pseudomonas aeruginosa. How it is done: P. aeruginosa PAO1 (5×10^5 cfu/mL) was grown in an MBEC plate for 24 hours. At 24 hours, the pegs were moved to a new 96-well plate containing fresh MHII media and either scrambled, RpsJ, or AcpP PPMO at the indicated concentrations. All wells containing PPMOs (including Scrambled) contained 2 μg/mL of PMBN. The pegs were again moved to new plates with or without PPMOs at 32 and 40 hours. Pegs were processed for crystal violet or visualized with microscopy at 48 hours. […] FIGS. 7B-7D: Spinning Disk confocal microscopy images of 48 hour biofilm treated with (FIG. 7B) 10 μM Scr PPMO #42, (FIG. 7C) 2.5 μM AcpP PPMO #35, (FIG. 7D) 10 μM AcpP PPMO #35. Green channel is PAO1 GFP; Red channel is biofilm stained with 200 μg/mL of Concanavalin A, Alexafluor 647 conjugate.
Pseudomonas aeruginosa Biofilm Reduction in MBEC Plate Protocol
• 1. 10 mL of MH is inoculated with a single colony and incubated at 37° C. and ˜250 rpm for about 5 hours. • 2. The sample is centrifuged for 10 minutes at ˜4000 rpm at 4° C., the supernatant decanted and the pellet resuspended in 10 mL of 150 mM NaCl or PBS. This step is repeated to wash the pellet 3 times. • 3. […] The OD600 of the sample is taken and cfu/mL is calculated. […]
1. […] The final OD570 of the 10× dilution of solution should be approximately 0.500 absorbance. […]
2. OD reading: The OD570 for the 96-well plate from step 1e is determined. […]

Data set [2] deals with P. aeruginosa PAO1. Put plainly: Synergy assay with Piperacillin Tazobactam. In kind it is cell-based, Pseudomonas aeruginosa. Conditions: PPMO 32 to 0.5 μM; 2 μg/mL PMBN; 18 hours at 37° C. As for the experimental part: A synergy assay was performed with Piperacillin Tazobactam and AcpP PPMO #35 in P. aeruginosa PAO1. 1×10^6 cfu/mL of PAO1 was inoculated into Mueller Hinton II media in an 96-well plate in the presence of […] PMBN. Piperacillin Tazobactam (PT) was serial diluted by half dilutions in the lateral direction from 128 to 0.124 μg/mL. AcpP PPMO #35 was vertically diluted in the same manner from 32 to 0.5 μM. The 96-well plate was then incubated for 18 hours at 37° C.
A synergy assay was performed with Piperacillin Tazobactam and AcpP PPMO #35 in P. aeruginosa PAO1. 1×10^6 cfu/mL of PAO1 was inoculated into Mueller Hinton II media in an 96-well plate in the presence of 2 μg/mL PMBN. Piperacillin Tazobactam (PT) was serial diluted by half dilutions in the lateral direction from 128 to 0.124 μg/mL. AcpP PPMO #35 was vertically diluted in the same manner from 32 to 0.5 μM. The 96-well plate was then incubated for 18 hours at 37° C.

For “PPMO #35: AcpP PMO CTCATACCTTG, 5′ (RXR)4XB CPP, 3′ H”, in data set [1], the “reduction of existing biofilm (crystal violet)” value is “statistically significant reduction of biofilm”. In data set [2], the “MIC of Piperacillin Tazobactam in combination with PPMO” value is reported as “decreasing MIC values as the PPMO concentration increased”.
